row,melting point [°C],Compound
1,177 to 178,COc1cc2ncnc(N3CCN(C(=S)NCc4ccc(N(C)C)cc4)CC3)c2cc1OC
2,57 to 58,CCN(C(=O)N(C)C(=O)NC)c1ccccc1
3,129 to 130,Cn1c(CC#N)ccc1C(=O)c1ccc(Cl)cc1Cl
4,195 to 197,CN1CC(c2ccc(Cl)cc2)=NNC1=O
5,175 to 176,CCc1[nH]nc(C(=O)NC2CCCC2)c1NC(=O)c1cnccn1
6,204 to 206,Cn1c(=O)c(N=C=O)c(-c2ccccc2Cl)c2cc(Cl)ccc21
7,210 to 212,COc1cccc2cc(C(=O)O)c(C(=O)O)cc12
8,142 to 143,CN(C)c1ccc(C(=O)c2ccc(OCCO)cc2)cc1
9,142 to 165,CS(=O)c1ccc(C2CCCC(=O)N2c2ccc(Cl)cc2)cc1 (stereo not given)
10,92,CCOc1cc(C(=O)OC)cc(OCC)c1N=Nc1ccccc1
11,178 to 179,CCCc1ccnc(C(N)=O)c1C(N)=O
12,131 to 132,CCOP(=O)(/C=C/c1cn(-c2ccccc2)nc1OCc1ccc(OCc2nc(-c3ccco3)oc2C)cc1)OCC
13,205,CC(=O)c1cc2cnccc2n1S(=O)(=O)c1ccccc1
14,221 to 224,O=C1Cc2ccccc2N1Nc1ccncc1
15,143 to 146,CC(C)C(NC(=O)OCCN1CCCC1)C(=O)NC(Cc1ccccc1)C(O)C(Cc1ccccc1)NC(=O)C(NC(=O)OCc1ccccc1)C(C)C (stereo not given)
16,191,Cc1cccc(NC(=O)NC(CCC(=O)O)C(=O)N(CC(=O)OC(C)(C)C)c2ccccc2)c1 (racemic)
17,180 to 183,N#Cc1ccccc1C#CCOCCn1cnc2c(N)nc3ccccc3c21
18,125,CC(Oc1ccc(N(C)c2nnc3cc(Cl)ccc3n2)cc1)C(=O)O (stereo not given)
19,92 to 93,c1cc(OCc2ccc3ccccc3n2)cc(C2SCCCS2)c1
20,69 to 72,c1ccc(C(c2ccccc2)N2CCCC2)cc1
21,51 to 53,OC(CCl)CNc1ccc(Cl)c(Cl)c1 (stereo not given)
22,128 to 130,NS(=O)(=O)c1ccc(-n2nc(C(F)(F)F)cc2-c2ccc(-c3cnco3)cc2)cc1
23,96 to 98,O=C(O)C(=O)c1ccc(OCCOC2CCCCC2)cc1
24,89 to 96,CCOC(=O)c1cccc(Cc2c(C(=O)OCC)n(Cc3cc4c(cc3CC)OCO4)c3ccc(OCOC)cc3c2=O)c1

row,melting point [°C],Compound
1,88 to 89,CCOC(=O)C(C)Oc1ncn(-c2ccccc2)n1 (stereo not given)
2,192,COc1ccccc1Oc1c(Cl)nc(-c2cccnn2)nc1NS(=O)(=O)CCc1cccc2ccccc12
3,169 to 172,O=C(/C=C/c1ccccc1)OCCOC(=O)NC1(C(=O)O)CC1
4,121,O=S(=O)(c1ccc(F)cc1)N1CCCC1c1ccc(F)cc1 (racemic)
5,157 to 159,O=C(O)Cc1ccc(N2CC3CCCCC3C2=O)cc1 (stereo not given)
6,149 to 155,CC1CCC(N(CC2CCC(CN(C(=O)Nc3ccc(N4CCCC4)cc3)C3CCC(C)CC3)CC2)C(=O)Nc2ccc(N3CCCC3)cc2)CC1 (stereo not given)
7,190 to 191,COCCNC(=O)c1ccc(C(=O)NS(=O)(=O)c2ccccc2)cn1
8,222 to 224,COc1ccc(C2=NN(c3ccc(C(=O)O)cc3)C(=O)[C@H]3CC=CC[C@@H]23)cc1Cl (relative stereo)
9,135 to 138,COc1cc(C(C)C)c(Oc2cnc(N)nc2N)cc1-c1ncon1
10,164,CCOC(=O)C1=C(C)N2CCNC2=C(C(=O)OCC)C1c1ccco1 (stereo not given)
11,154,CCN(CCO)CC(C)N1c2ccccc2Sc2ccc(C(=S)NCc3ccccc3)cc21 (racemic)
12,178 to 181,Clc1ccc2[nH]cc(C3=CCC4(CC3)OCCO4)c2c1
13,130 to 132,COc1cc2c(cc1OC)C(C=O)c1ccccc1CC2 (stereo not given)
14,143 to 145,CC(C)(C)c1ccc(-c2cc(Oc3ccc4[nH]ccc4c3)ncn2)cc1
15,62.5 to 64,C=CCONC(O)(CC)C1C(=O)C=C(CC)OC1=O (stereo not given)
16,170 to 171,CN(C)c1ccc2c(c1)nc(/C=C/c1ccccc1)n2-c1ccccn1
17,158 to 160,CC(=O)OC1CCC2(C)C(CCC3=C4C(=O)CC(C(C)CCCOS(=O)(=O)c5ccc(C)cc5)C4(C)CCC32)C1 (stereo not given)
18,145 to 148,COc1ccc(Cn2cnc3c(-c4ccco4)nc(I)nc32)cc1
19,185 to 186,CC(C)(C)Cc1c(CC(C)(C)C(=O)O)n(Cc2ccc(Cl)cc2)c2ccc(OCc3ccc4scc(Cl)c4n3)cc12
20,236 to 237,CC(=O)c1cc(-c2ccncc2)[nH]c1C
21,192 to 193,COC(=O)C1=C(C)NC(C)=C(c2nc(-c3ccc(CN(C)Cc4ccccc4)cc3)no2)C1c1cccc([N+](=O)[O-])c1 (stereo not given)
22,160 to 161,COc1cc2c(cc1OC)[C@@H]1CCCC[C@@H]1N=C2c1ccc(N)cc1 (racemic)
23,123 to 125,COc1ccc(CCc2ccc(-n3c(C)nc4cnccc43)cc2)cc1OC1CCCC1
24,106 to 109,Cc1nc2c([N+](=O)[O-])cc(Br)cc2n1COCc1ccccc1

row,melting point [°C],Compound
1,> 300,COc1ccc(CC2NCCCC2C(C)O)cc1 (stereo not given)
2,116 to 118,CCC(CC)n1c(=O)ccc2cnc(Nc3ccccc3)nc21
3,263 to 265,COc1cc2c(=O)c(S(C)=O)cn(C)c2cc1Cl (stereo not given)
4,111 to 112,CCOCc1nc2c(N)nc3ccccc3c2n1CCOCC#Cc1ccccc1
5,28 to 30,CCOC(=O)CCCC(=NO)c1ccccc1
6,91 to 92,COC(=O)C1CCC(=O)N1C(=O)Nc1ccccc1 (stereo not given)
7,176 to 179,COc1cc(NC(=O)Nc2c(-c3ccccc3C)c3cc4c(cc3oc2=O)CCC4)cc(OC)c1O
8,293 to 295,Nc1c(F)c(N2CC(n3cncn3)C2)c(F)c2c1c(=O)c(C(=O)O)cn2C1CC1
9,158 to 160,COc1ccc2c(c1)C(c1ccncc1)=Nc1cc(Cl)ccc1O2
10,170 to 173,COC(=O)c1cn2c(C)csc2n1
11,230 to 235,COc1cc2cc3c(Nc4ccc(Sc5nccn5C)c(Cl)c4)c(C#N)cnc3cc2cc1OCCCN1CCOCC1
12,190 to 192,CCCCn1c(C)c(Br)c(=O)c(C(=O)Nc2ccc(Br)cc2C)c1C
13,193 to 195,Oc1ccc(-c2c3ccccc3c(Cl)c3sc4ccccc4c23)cc1
14,186 to 187,NS(=O)(=O)CCCNc1nc(Cl)ncc1Cl
15,133 to 135,COC(=O)/C=C/c1ccc2nn(C)c(C)c2c1C(=O)OC
16,89 to 90,COC(=O)c1ccc(Cl)cc1NC(=O)CSc1cccc(Br)c1
17,218 to 220,COc1nc(N)nc(-c2ccccc2)c1-c1ccc(=O)n(C)n1
18,188,Cc1cc2c(cc1C(F)(F)F)NC(=O)CC(c1cccc(-c3ccnc(CN(C)CC(C)C)c3)c1)=N2
19,189 to 191,O=C(O)c1ccc(C(c2ccccc2)c2ccccc2)cn1
20,237 to 238,CCOC(=O)C(=O)Nc1nc2c(s1)C(=O)c1ccccc1-2
21,158 to 160,O=C(NN=C1c2ccc(F)cc2CCC1c1ccccc1)Nc1ccc(C(F)(F)F)cc1 (stereo not given)
22,310 to 312,O=C1OC(=O)c2cc3ccc(C(F)(F)F)cc3c3cccc1c23
23,> 300,C[Si](C)(C)c1cc(C(=O)O)cc([Si](C)(C)C)c1
24,134 to 135,CCCn1nc(-c2ccc(O)c(F)c2)c2cccc(Cl)c21

row,melting point [°C],Compound
1,101 to 103,CC(C)(C)Sc1ccc(CN(O)C(N)=O)s1
2,120 to 122,CN(CCc1ccccc1)C(=O)Cn1cc(C=O)c2c(OCc3ccccc3)cccc21
3,108 to 109,Clc1ccc(-c2nc(-c3ccccc3)sc2CBr)cc1
4,116 to 118,Cc1cc(Oc2c(Cl)cc(C(F)(F)F)cc2Cl)nn1C(=O)NCCCl
5,186 to 193,Nc1ccccc1/C=C/C(=O)CC(=O)/C=C/c1ccc(O)cc1
6,127 to 128,CCOC(=O)C1=C(COCC(N)=O)NC(C)=C(C(=O)OC)C1c1ccccc1Cl (stereo not given)
7,128 to 130,CC(Oc1cc(Oc2ccc(C(F)(F)F)cc2Cl)ccc1[N+](=O)[O-])C(=O)NCc1ccco1 (stereo not given)
8,69 to 70,COc1ccc2oc(Cc3ccccc3)c(CC#N)c2c1
9,206 to 208,CN1C(=O)Nc2ccc(Cl)cc2C1(C#CC1(C)CC1)C(F)(F)F (stereo not given)
10,94.2,C=CCC(C#N)(C#N)Cc1ccc([N+](=O)[O-])cc1
11,107 to 110,NN=CNc1nc(CSCCN=CNS(=O)(=O)c2ccc(Br)cc2)cs1
12,64 to 67,CCCCOC(=O)c1ccc(CN2CCCN3CCCC32)cc1 (stereo not given)
13,75 to 77,O=c1oc(OCCCCBr)c(Cl)c2ccccc12
14,> 300,Cc1ccc2c(c1)C(c1ncnc3c1cnn3C1CCCC1)C(=O)N2 (stereo not given)
15,150 to 152,CNC(=O)N(C)c1nnc(C(C)(CCl)CCl)s1
16,121 to 123,COC(=O)CCCc1cc2cc(Cl)ccc2n1S(=O)(=O)c1ccc2ncsc2c1
17,119 to 120,C1=CC(n2c(-c3ccc4c(c3)OCO4)nc3ccccc32)CCC1 (stereo not given)
18,242 to 244,O=C1Nc2ccc(-c3cccc(Cl)c3)cc2C12OCCCO2
19,202 to 204,CC1(C)NC(=O)N(CCC(COc2ccc(-c3ccc(C#N)cc3)cc2)N(O)C=O)C1=O (stereo not given)
20,148 to 152,Fc1ccc2nc(Cl)c(Cl)nc2c1
21,144 to 145,Cc1ncc(C(=S)Nc2c(Cl)cncc2Cl)cc1OC1CCCC1
22,173 to 176,CC(C)COC(=O)Nc1cccc(Cn2ccc3cc(C(=O)O)ccc32)c1
23,173 to 174,Nc1cccc2cc(-c3nccs3)[nH]c12

row,Compound,melting point [°C]
1,Cc1cc(O)c(CCN(C)C)c(C)c1C,72
2,CCN1CCC2(c3cccc(O)c3)CC(Cc3ccccc3)=CCC2C1 (stereo not given),160 to 162
3,CN1CC=C(c2c[nH]c3ccc(NC(=N)c4cccs4)cc23)CC1,215 to 218
4,C1=C(c2c[nH]c3ccccc23)CCN(CC2COc3ccc4occc4c3O2)C1 (stereo not given),208 to 209
5,COC(=O)CN1C(=O)CN=C(c2ccccc2Cl)c2ccccc21,166 to 168
